For one series, the target named is T1, tetrameric PK M2 (Homo sapiens, UniProt P14618).
T1 construct: Activities of glycolytic enzymes measured in cytosolic fractions after treatment with HMGB1; endogenous in cells; host or cells: SW480, HCT116, HT29 cytosolic fractions; homogenates of human colon cancer tissue slices
Nature of the series: Pyruvate kinase enzymatic assay in cytosolic fractions / homogenates (low PEP). Format: cell-based. As for the experimental part:
Enzymatic activities of respiratory chain complexes, glycolytic proteins and malic enzyme were determined in subcellular fractions as previously described (Kaminski, M. M. et al. T cell activation is driven by an ADP-dependent glucokinase linking enhanced glycolysis with mitochondrial reactive oxygen species generation. Cell reports 2, 1300-1315 (2012).Bruncko, M. et al. Naphthamidine urokinase plasminogen activator inhibitors with improved pharmacokinetic properties. Bioorganic & medicinal chemistry letters 15, 93-98, (2005)) using a computer-tuneable spectrophotometer (Spectramax Plus Microplate Reader, Molecular Devices; Sunny Vale, Calif., USA) operating in the dual wavelength mode; samples were analyzed in temperature-controlled 96-well plates in a final volume of 300 μl. Activity of ME1 was recorded in presence of increasing amounts of malic acid (0.02, 0.05, 0.1, 0.2, 0.5, 1, 2.5 mM). Vmax and Km were calculated using a Hanes-Woolf plot. In the presence of high substrate levels the Km for malic acid was similar in all three tested cell lines (SW480: 0.32 mM, HCT116: 0.30 mM, HT29: 0.31 mM). Vmax (mU/mg protein) values were 3.38 (SW480, 0.5-5.0 mM malic acid), 5.77 (HCT116, 0.5-5.0 mM malic acid) and 3.68 (HT29, 0.5-5.0 mM malic acid) and 1.68 (SW480, 0.02-0.2 mM malic acid), 3.24 (HCT116, 0.02-0.2 mM malic acid) and 1.89 (HT29, 0.02-0.2 mM malic acid). Two isoforms of ME1, mitochondrial (NAD(P)+dependent) ME3 and mitochondrial (NAD+dependent) ME2, had very low or no detectable activities (data not shown).

The subject of the next series is SW480 xenograft tumor. Nature of the series: Xenograft tumor growth in nude mice. In kind it is in vivo, mouse. As to conditions: 10 μg rhHMGB1 daily intraperitoneal for 2 weeks. The method, then: For animal studies six-week-old female and male athymic CD1 nude mice (Charles River, n=40) were injected subcutaneously with 5×10^6 SW480 or HT29 cells in 100 μl PBS in the right flank using a 30-gauge needle. Treatment was started when tumors were palpable. Daily intraperitoneal injections at the contralateral side for 2 weeks were done with 10 μg rhHMGB1 in 500 μl PBS or PBS only (control group) and/or 12.5 mg/kg/injection L-DON (Ovejera, A. A., Houchens, D. P., Catane, R., Sheridan, M. A. & Muggia, F. M. Efficacy of 6-diazo-5-oxo-L-norleucine and N-[N-gamma-glutamyl-6-diazo-5-oxo-norleucinyl]-6-diazo-5-oxo-norleucine against experimental tumors in conventional and nude mice. Cancer research 39, 3220-3224 (1979).). Tumor volume was measured by a calliper using the ellipsoid formula (length×width×height×½) as described (Tomayko, M. M. & Reynolds, C. P. Determination of subcutaneous tumor size in athymic (nude) mice. Cancer Chemother Pharmacol 24, 148-154 (1989).). After 2 weeks of treatment the animals were sacrificed.

Series [1] concerns HT29 cells. Nature of the series: Crystal violet cytotoxicity assay. Format: cell-based. The method, then:
(§1) Human colon carcinoma cell lines SW480, HCT116, HT29 and Caco2, the human glioblastoma cell line U251MG and the Natural killer cell line NK-92 Cl were purchased from ATCC. Cell lines were regularly tested for contamination by multiplex PCR performed in the Genomics and Proteomics Core Facility 2 (DKFZ, Heidelberg, Germany). For experiments, cells were cultured for no more than 10 passages. Rho zero cells were generated as described earlier 1. (Gdynia, G. et al. Danger signaling protein HMGB1 induces a distinct form of cell death accompanied by formation of giant mitochondria. Cancer research 70, 8558-8568). Cells used in the experiments were cultured in RPMI (#1640, colon carcinomas, NK cells) or DMEM high glucose (#41965-039, glioblastoma cells) medium. Rho zero cells were generated as described earlier (Gdynia, G. et al. ibd.). Briefly, cells were cultured in RPMI medium (10% FCS, 1% P/S) supplemented with 250 ng/ml ethidiumbromide, 50 μg/ml L-pyruvate and 5 mg/ml uridine over a period of 12 weeks. For cytotoxicity measurements, cells were cultured in 96-well plates, treated with recombinant human HMGB1 protein (Sigma-Aldrich®), glycyrrhizinic acid ((3β, 18α)-30-hydroxy-11, 30-dioxoolean-12-en-3-yl 2-O-β-D-glucopyranuronosyl-β-D-glucopyranosiduronic acid)) (Sigma-Aldrich®), 10 μM (non-toxic) or 100 μM (cytotoxic) P-M2tide (aa sequence: GGAVDDDpYAQFANGG; #BML-P239-0001; Enzo Life Sciences) or 100 μM ML-265 (Cayman Chemical), then cell viability was assessed by crystal violet staining (Gillies, R. J., Didier, N. & Denton, M. Determination of cell number in monolayer cultures. Analytical biochemistry 159, 109-113 (1986)). Malic enzyme 1 knock-down was performed with 40 nM siRNA using lipofectamine in 6-well plates followed by treatment with 80 nM HMGB1 for 72 h. Sequences of siRNA were: ME1, 5′-[…]-3′ and scrambled control 5′-CCUGCAGUACUUCAAGCGGtt-3′. PKM2 siRNA was from Santa Cruz. A nonspecific siRNA served as control (Dharmacon, Schwerte, Germany). For overexpression of PKM2 or ME1, cells were transfected with pCMV-PKM2 (Sino Biological Inc., Beijing, China) or pCMV-ME1 (OriGene, Rockville, Md., USA) using Lipofectamine 2000. For cytotoxicity measurements confluent cells were cultured in 96-well plates if not otherwise indicated. Cytotoxic activity of supernatants from stimulated NK cells was assessed in 96-well plates for 3 days with RPMI medium as reference. Recombinant human HMGB1 (10 ng, Sigma) suited as positive control. For mass isotopomer assays, cells were cultured in glucose- or glutamine-free medium supplemented with either uniformly labeled (U)-13C-D-glucose or U-13C-glutamine (Sigma-Aldrich®).

For series [2], the system named is SW480 colorectal cancer cells. Nature of the series: Crystal violet cytotoxicity assay. In kind it is cell-based. The note with it: 72 h. The method, then:
as §1

For series [3], the system named is HCT116 colorectal cancer cells. Nature of the series: Crystal violet cytotoxicity assay. As to conditions: 72 h. Format: cell-based. As for the experimental part:
as §1

Series [4] has as its system HT29 cells. Nature of the series: Production of labeled CO2 (glucose and glutamine oxidation). In kind it is cell-based, human. The note with it: HT29 cells after HMGB1 treatment.
[5] abbreviates: NK cell derived HMGB1 approx. 16 nM, recombinant human HMGB1 80 nM.

T1 sequence (P14618 2-531): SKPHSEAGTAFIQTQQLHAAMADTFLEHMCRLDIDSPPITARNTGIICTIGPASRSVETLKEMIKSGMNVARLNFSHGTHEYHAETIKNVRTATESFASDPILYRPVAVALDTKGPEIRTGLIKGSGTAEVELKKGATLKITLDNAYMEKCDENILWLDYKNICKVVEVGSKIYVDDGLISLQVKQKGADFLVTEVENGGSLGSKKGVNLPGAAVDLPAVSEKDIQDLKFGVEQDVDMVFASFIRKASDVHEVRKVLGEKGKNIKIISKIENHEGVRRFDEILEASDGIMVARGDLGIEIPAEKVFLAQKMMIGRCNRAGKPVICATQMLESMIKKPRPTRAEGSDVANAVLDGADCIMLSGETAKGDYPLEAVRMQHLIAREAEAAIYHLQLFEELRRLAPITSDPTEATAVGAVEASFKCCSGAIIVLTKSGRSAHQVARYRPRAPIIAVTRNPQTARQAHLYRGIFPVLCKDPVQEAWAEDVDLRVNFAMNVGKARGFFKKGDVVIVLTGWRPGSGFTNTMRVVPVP

“HMGB1: recombinant human HMGB1 protein (Sigma-Aldrich); High Mobility Group Box 1 polypeptide, human, SEQ ID NO: 4”: the “tetrameric PK M2 activity” value with tetrameric PK M2 (all colorectal cancer cell lines tested, HMGB1 80 nM, 24 h) was “specifically inhibited”; in the series with tetrameric PK M2 (ex vivo tissue slice cultures, HMGB1 160 nM, 72 h) it was “specifically inhibited”. For the same substance, in the series with SW480 xenograft tumor, the xenograft tumor growth result was “inhibited”. Besides, in the series with HT29 cells [1] (low to intermediate HMGB1 concentrations (16 to 80 nM)), the “sensitivity of cells to HMGB1” value was “resistant”. For the same substance, in the series on HT29 cells [1] (siRNA knock-down of ME1, HMGB1 80 nM, 72 h), the “sensitivity towards HMGB1 cytotoxicity after down-regulation of ME1” value is “sensitization”. The “cell death (cytotoxicity)” value in series [2] (setting [5]) and in series [3] (setting [5]) was “efficiently killed” throughout. For the same substance, the “sensitivity of respiratory chain deficient (ρ0) cells to HMGB1” value in series [2] (ρ0 SW480, HMGB1 160 nM) is “almost completely resistant”; in series [3] (ρ0 HCT116, HMGB1 160 nM) it was “almost completely resistant”. In the series on HT29 cells [4], the “decrease of glucose oxidation” value is given as roughly 50%. Moreover, the “increase of glutamine oxidation” value with HT29 cells [4] is recorded as roughly 35%.

(Values after US11274132B2, “Combined preparations of PKM2 modulators and HMGB1” (Ruprecht-Karls-Universität Heidelberg, priority 2015, dated 2022).)
